Activity calls are given as the source filed them. Rule as the data show it, for most assays here: actives have a measured EC50 and inactives only a lower limit.
Tests used:
[1] = biological target: T1, Polyadenylate-binding protein 1 (Homo sapiens, UniProt P11940); assay: MLLE binding blockers, Cy5 peptide tracer – biochemical, fluorescence polarization, Cy5-PAM2 peptide, secondary, miRNA deadenylation inhibitor project, dose response (AID 602260); format: functional; details: read-out: IC50_Mean
[2] = biological target: T1, Polyadenylate-binding protein 1; assay: MLLE domain peptide-binding blockers, IC50 – biochemical, fluorescence polarization, FITC-PAM2 peptide, dose response (AID 602259); format: functional; details: read-out: IC50_Mean
[3] = biological target: Luciferin 4-monooxygenase (Photinus pyralis, UniProt P08659); assay: inhibition of purified Photinus pyralis luciferase – biochemical, luminescence, dose response (AID 1891)
[4] = Luminescence Cell-Based Dose Confirmation HTS to Identify Inhibitors of Platelet Dense Granule Release. [Related pubchem assays: 1663 (Primary HTS), 1678 (Summary of Project)]; format: functional
[5] = Luminescence Cell-Based Dose Response HTS to Identify Activators of Luciferase Translation or Activity in H4 […] Cells. [Related pubchem assays: 1829 (Project Summary), 1814 (Primary HTS)]; format: functional
H4 = assay: Luminescence Cell-Based Dose Response HTS to Identify Activators of 5'UTR Stem-Loop Driven Prion Protein mRNA Translation in H4 Neuroglioblastoma Cells. [Related pubchem assays: 1829 (Project Summary), 1814 (Primary HTS)]; format: functional; details: Homo sapiens
[6] = Luminescence Cell-Based Dose Retest to Confirm Inhibitors of Cancer Stem Cells. [Related pubchem assays (depositor defined):AID2717, AID2721]; format: functional; details: Homo sapiens
INS1 = assay: INS-1E survival protection against cytokine death – cell-based, luminescence, retest, dose response (AID 449756); format: functional; details: Rattus norvegicus;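 also: cell death triggered by IL-1 beta plus TNF-alpha plus IFN-gamma mixture; protective hits raise ATP signal compared with cytokine alone wells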
[7] = biological target: T2, Zinc finger protein mex-5 (Caenorhabditis elegans, UniProt Q9XUB2); assay: potency of MEX-5 RNA-binding blockers – biochemical, C. elegans, fluorescence polarization, dose response (AID 1960)
T2 sequence (Q9XUB2 whole entry): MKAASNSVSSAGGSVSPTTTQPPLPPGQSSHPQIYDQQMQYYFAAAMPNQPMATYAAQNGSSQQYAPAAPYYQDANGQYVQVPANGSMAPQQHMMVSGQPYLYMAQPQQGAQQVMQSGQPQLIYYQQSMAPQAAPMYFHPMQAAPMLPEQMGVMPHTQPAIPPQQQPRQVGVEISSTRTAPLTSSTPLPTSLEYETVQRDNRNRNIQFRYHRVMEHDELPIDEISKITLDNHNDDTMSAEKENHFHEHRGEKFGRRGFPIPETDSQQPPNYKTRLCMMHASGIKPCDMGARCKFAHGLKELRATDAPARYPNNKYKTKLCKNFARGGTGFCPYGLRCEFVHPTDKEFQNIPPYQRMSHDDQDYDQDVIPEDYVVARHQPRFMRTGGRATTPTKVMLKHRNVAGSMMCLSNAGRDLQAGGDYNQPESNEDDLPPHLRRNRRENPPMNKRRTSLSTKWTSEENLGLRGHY

[8] = biological target: T3, RNA-binding protein pos-1 (Caenorhabditis elegans, UniProt G5EF15); assay: disruptors of C. elegans POS-1 RNA interaction – biochemical, fluorescence polarization, dose response (AID 1964);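 also: purified POS-1 fused to maltose binding protein made in E. coli; potency of compounds blocking POS-1 binding to fluorescent RNA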
T3 sequence (G5EF15 whole entry): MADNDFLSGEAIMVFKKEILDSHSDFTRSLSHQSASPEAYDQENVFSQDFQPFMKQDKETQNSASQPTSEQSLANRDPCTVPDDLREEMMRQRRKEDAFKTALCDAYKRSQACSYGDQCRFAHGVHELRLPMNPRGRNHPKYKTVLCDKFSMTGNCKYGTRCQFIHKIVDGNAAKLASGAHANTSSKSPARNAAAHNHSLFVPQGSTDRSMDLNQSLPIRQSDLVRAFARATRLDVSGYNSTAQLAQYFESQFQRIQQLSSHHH

[9] = viability of uninfected HEp-2 cells – cell-based, HTS, cytotoxicity control for RSV inhibitor project, dose response (AID 2410); format: functional; details: human respiratory syncytial virus
[10] = NIH3T3 cell viability loss – ATP luminescence, mouse fibroblasts, counter-screen, dose response (AID 2010); format: functional, cell-based;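 also: cells exposed to compound for about 90 hours before reading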
[11] = alpha-synuclein stem-loop luciferase translation blockers – H4 neuroglioma cells, luminescence, confirmation (AID 1988); format: functional, cell-based
[12] = Luminescence Cell-Based Dose Response HTS to Identify Inhibitors of 5'UTR Stem-Loop Driven Prion Protein mRNA Translation in H4 Neuroglioblastoma Cells. [Related pubchem assays: 1827 (Project Summary), 1813 (Primary HTS)]; format: functional
[13] = Trypanosoma cruzi growth suppression in host cells – NIH3T3 host cells, beta-gal luminescence, confirmation (AID 2044); format: functional, cell-based;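 also: intracellular parasites grown in NIH/3T3 mouse fibroblasts as host cells; luminescent beta-galactosidase reporter signal from transgenic T. cruzi replicating inside host cells; inhibitors lower the luminescence signal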
[14] = luciferase reporter signal suppression in cells – H4 neuroglioma cells, luminescence, dose response (AID 1990); format: functional, cell-based
[15] = P. falciparum Dd2 growth inhibitors, dose response, SYBR Green, cherry-picked samples (AID 1159567); format: functional, cell-based

T1 sequence (P11940 whole entry, the tested form may be a part): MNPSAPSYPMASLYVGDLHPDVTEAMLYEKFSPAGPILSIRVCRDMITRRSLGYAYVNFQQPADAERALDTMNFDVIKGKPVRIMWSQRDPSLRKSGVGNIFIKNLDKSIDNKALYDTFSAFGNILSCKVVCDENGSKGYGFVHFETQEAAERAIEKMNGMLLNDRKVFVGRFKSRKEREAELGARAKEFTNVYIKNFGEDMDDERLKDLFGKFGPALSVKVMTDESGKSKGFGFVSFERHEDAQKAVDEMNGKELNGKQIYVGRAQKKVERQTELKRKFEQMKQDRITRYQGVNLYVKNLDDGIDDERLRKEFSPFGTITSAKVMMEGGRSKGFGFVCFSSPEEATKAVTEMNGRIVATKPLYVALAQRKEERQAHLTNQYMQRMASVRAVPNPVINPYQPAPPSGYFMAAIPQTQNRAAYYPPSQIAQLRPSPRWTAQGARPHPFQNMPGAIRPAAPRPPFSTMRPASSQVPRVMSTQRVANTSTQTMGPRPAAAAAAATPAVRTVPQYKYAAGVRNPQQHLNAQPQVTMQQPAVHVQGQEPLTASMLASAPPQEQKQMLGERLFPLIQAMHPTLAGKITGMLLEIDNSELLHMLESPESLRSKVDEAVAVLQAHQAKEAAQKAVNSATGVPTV
Chain of Luciferin 4-monooxygenase (P08659 whole entry): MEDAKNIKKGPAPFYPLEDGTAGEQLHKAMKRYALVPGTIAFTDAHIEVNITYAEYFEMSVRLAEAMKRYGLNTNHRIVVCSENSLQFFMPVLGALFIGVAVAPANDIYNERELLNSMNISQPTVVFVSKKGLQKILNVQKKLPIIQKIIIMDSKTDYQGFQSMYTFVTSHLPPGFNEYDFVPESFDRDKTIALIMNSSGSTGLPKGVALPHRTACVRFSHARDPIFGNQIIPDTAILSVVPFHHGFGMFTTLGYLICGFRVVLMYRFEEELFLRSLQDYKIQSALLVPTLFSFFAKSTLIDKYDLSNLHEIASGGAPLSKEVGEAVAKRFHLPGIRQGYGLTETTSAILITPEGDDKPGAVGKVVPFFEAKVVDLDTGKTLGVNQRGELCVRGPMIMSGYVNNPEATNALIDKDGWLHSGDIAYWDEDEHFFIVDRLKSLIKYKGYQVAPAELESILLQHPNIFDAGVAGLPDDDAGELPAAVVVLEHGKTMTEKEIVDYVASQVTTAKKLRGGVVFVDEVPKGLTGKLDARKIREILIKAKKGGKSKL

**Q.** What does the source list for O=C(CSc1n[nH]c2c3ccccc3nc-2n1)NCc1ccco1?
**A.** IC50 [1]: > 66 µM (inactive); IC50 [2]: > 66 µM (inactive)

**Q.** For CCOC(=O)C1=C(C)NC(=O)NC1, which EC50 [3] is on record?
**A.** > 112 µM (not active)

**Q.** And the EC50 [4]?
**A.** 5.87 µM (active)

**Q.** For Cc1nn(CC(C)C)c(Cl)c1C(=O)NC1CCC(C)CC1 (stereo not given), which EC50 [5] is on record?
**A.** 0.258 µM (active)

**Q.** And the EC50 (H4)?
**A.** 1.19 µM (active)

**Q.** With O=C1CCn2c1c(O)c1ccccc1c2=O as the molecule, how does the IC50 [1] read?
**A.** > 66 µM (inactive)

**Q.** And the IC50 [2]?
**A.** 43.6 µM (inactive)

**Q.** For C=C1[C@@H](O)[C@@H]2O[C@]3(CC[C@H](/C=C/[C@@H](C)[C@@H]4CC(C)=CC5(O[C@H](C[C@@](C)(O)C(=O)OC)CC[C@H]5O)O4)O3)CC[C@H]2O[C@@H]1[C@@H](O)C[C@H](C)[C@H]1OC2(CCCCO2)CC[C@H]1C (stereo not given in full), which AC50 [6] is on record?
**A.** < 0.16 µM (inconclusive)

**Q.** And the AC50 (INS1)?
**A.** < 0.195 µM (active)

**Q.** With O=C(N/N=C/c1sc(=O)n(-c2ccccc2)c1Cl)c1ccccc1 as the molecule, how does the EC50 (H4) read?
**A.** 34.9 µM (inconclusive)

**Q.** Which results are given for Cc1ccc(-c2nc(/C=N/c3ccc(O)cc3)c(O)o2)cc1?
**A.** EC50 [7]: > 300 µM (not active); EC50 [8]: > 300 µM (not active)

**Q.** Which EC50 [3] does the source give for COc1ccccc1/C=N/Nc1nccnc1Cl here?
**A.** 12.3 µM (active)

**Q.** And the EC50 [4]?
**A.** 5.37 µM (active)

**Q.** What does the source list for Cc1ccnc(Nc2nc(-c3ccc(O)cc3O)cs2)c1?
**A.** CC50 [9]: 25.8 µM (active); AC50 [6]: 12.3 µM (active)

**Q.** With Cc1cc(C(=O)N/N=C/c2cc(Br)cc(Br)c2OC(=O)c2cccc(F)c2)[nH]n1 as the molecule, how does the EC50 [10] read?
**A.** > 60 µM (inconclusive)

**Q.** What about the AC50 [6] of the same molecule?
**A.** 3.46 µM (active)

**Q.** What about the EC50 [11] of the same molecule?
**A.** 7.49 µM (active)

**Q.** And the AC50 (INS1)?
**A.** 2.33 µM (active)

**Q.** What about the EC50 [12] of the same molecule?
**A.** 8.33 µM (active)

**Q.** What about the EC50 [13] of the same molecule?
**A.** 1.01 µM (active)

**Q.** And the EC50 [14]?
**A.** 8.5 µM (active)

**Q.** For CCCCOc1c(Br)cc(/C=N/O)cc1OCC, which EC50 [7] is on record?
**A.** > 300 µM (not active)

**Q.** And the EC50 [8]?
**A.** > 300 µM (not active)

**Q.** For CCC(=O)Nc1ccc2c(c1)OC[C@H](C)N(Cc1ccccn1)C[C@H](C)[C@H](OC)CN(C)C2=O, which AC50 [15] is on record?
**A.** 15.3 µM (active)

**Q.** Which AC50 [15] does the source give for COc1cccc(-c2ccc3c(c2)[C@H]2[C@H](CCN2C(=O)C2CCCC2)[C@H](CO)N3)c1 here?
**A.** 7.06 µM (active)

**Q.** With Cc1ccccc1-c1ccc([C@H]2[C@H]3CNC[C@@H]2N3S(=O)(=O)c2cccc(F)c2)cc1 as the molecule, how does the AC50 [15] read?
**A.** 35.7 µM (active)

**Q.** For CS(=O)(=O)N1[C@H](C#N)[C@H](c2ccccc2-c2ccccc2)[C@H]1CO, which AC50 [15] is on record?
**A.** > 36 µM (inactive)
